What all share (type): cell-based, human
Assay [1] deals with HNSCC cells (Cal27, Cal33). The assay can be described thus: IncuCyte 2D and 3D spheroid killing of HNSCC. Conditions: 2D and 3D IncuCyte; E:T 5:1, 3 nM; irrespective of FANCA gene; vs B7-H3 single domain or IL-15 alone. The method, then: FIGS. 28A-28F illustrate real-time imaging assays. FIG. 28A is a graph showing Nuclight red-labeled Cal27 survival after incubation with NK cells at an E:T of 5:1 in different conditions: no treatment or 3 nM IL-15, B7-H3 SD and B7-H3 TriKE for 48 hours in an IncuCyte Zoom imager. […] FIG. 28C is a graph illustrating the size of the spheroid in FIG. 28B. FIG. 28D is a graph showing Nuclight red-labeled Cal33 survival after incubation with NK cells at an E:T of 5:1 in different conditions: no treatment or 3 nM IL-15, B7-H3 SD and B7-H3 TriKE for 48 hours in an IncuCyte Zoom imager. […] FIG. 28F is a graph illustrating the size of the spheroid in FIG. 28E.
NK cell responses against HNSCC lines in the presence of the B7-H3 TriKE were assessed through either flow cytometry based functional assays, to evaluate NK cell degranulation and cytokine secretion, or IncuCyte imaging assays, to directly assess target killing. […]
Enriched NK cells (N=4) were incubated with Nuclight red-labeled Cal27 at an E:T of 5:1 in different conditions: no treatment or 3 nM IL-15, B7-H3 SD and B7-H3 TriKE for 48 hours in an IncuCyte Zoom imager. Quantifications of percent live cells were done by normalizing hourly counts of red cells to targets alone at t=0. […] Quantifications of percent average red object area (live cells) were done by normalizing hourly counts of average red object area to targets alone at t=0. […]

The subject of assay [2] is DU145 prostate cancer cells. Put plainly: NK cell CD107a / IFNγ flow cytometry against DU145. The conditions noted are these: normal donor and prostate cancer patient NK cells, vs controls. The text has this: FIG. 15A is a graph showing pooled analysis of proportion of NK cells from healthy donors or prostate cancer patients expressing CD107a+ (top) or IFNγ (bottom) against C4-2 targets (N=9 for healthy donors, N=3 for patients). FIG. 15B is a graph showing pooled analysis of proportion of NK cells from healthy donors or prostate cancer patients expressing CD107a+ (top) or IFNγ (bottom) against DU145 targets (N=9 for healthy donors, N=3 for patients). FIG. 15C is a graph showing pooled analysis of proportion of NK cells from healthy donors or prostate cancer patients expressing CD107a+ (top) or IFNγ (bottom) against LNCaP targets (N=9 for healthy donors, N=3 for patients). FIG. 15D is a graph showing pooled analysis of proportion of NK cells from healthy donors or prostate cancer patients expressing CD107a+ (top) or IFNγ (bottom) against PC3 targets (N=9 for healthy donors, N=3 for patients). * p<0.05, ** p<0.01, *** p<0.001, and **** p<0.0001.
ADCC was measured in a flow cytometry assay by evaluating degranulation via CD107a (lysosomal-associated membrane protein LAMP-1) and intracellular IFNγ production. Upon thawing, normal donor and patient-derived PBMCs or ascites cells were rested overnight (37° C., 5% CO2) in RPMI 1640 media supplemented with 10% fetal calf serum (RPMI-10). […] Samples were washed and evaluated in an LSRII flow cytometer (BD Biosciences, San Jose, CA, USA). […]
For orientation: Flow cytometry measures light scatter and fluorescence of single cells or particles in a stream.

Another assay has as its system A549 lung cancer cells. The assay can be described thus: NK cell CD107a / IFNγ flow cytometry against A549. The conditions noted are these: normal donor PBMCs, vs controls. The text has this:
FIGS. 24A-24F illustrate that B7-H3 TriKE enhances NK cell function against lung tumor targets. FIG. 24A is a graph showing pooled analysis of proportion of NK cells from healthy donors expressing CD107a+ against A549(N=6) tumor targets. FIG. 24B is a graph showing pooled analysis of proportion of NK cells from healthy donors expressing IFNγ against A549(N=6) tumor targets. FIG. 24C is a graph showing pooled analysis of proportion of NK cells from healthy donors expressing CD107a+ against NCI-H322 (N=5) tumor targets. FIG. 24D is a graph showing pooled analysis of proportion of NK cells from healthy donors expressing IFNγ against NCI-H322 (N=5) tumor targets. FIG. 24E is a graph showing pooled proportion of NK cells from healthy donors (black bars) or lung cancer patients (white bars) expressing CD107a+ against NCI-H460 (N=7). FIG. 24F is a graph showing pooled proportion of NK cells from healthy donors (black bars) or lung cancer patients (white bars) expressing IFNγ against NCI-H460 (N=7). ** p<0.01, *** p<0.001, and **** p<0.0001.
ADCC was measured in a flow cytometry assay by evaluating degranulation via CD107a (lysosomal-associated membrane protein LAMP-1) and intracellular IFNγ production. […] Samples were washed and evaluated in an LSRII flow cytometer (BD Biosciences, San Jose, CA, USA). […]

Entries after “also recorded” stand apart in the source; their conditions may differ.

Turning to “B7-H3 TriKE: camelid nanobodies targeting CD16 and B7-H3 joined by IL-15 and two linkers; sequence table equates the name with cam1615B7-H3”, the “HNSCC target cell killing by NK cells” value in assay [1] is “more HNSCC target cell killing; also recorded: induced NK cell killing against HNSCC”.
Consider “cam1615B7-H3: second-generation TriKE: humanized camelid anti-CD16 VHH, human wild-type IL-15, anti-B7-H3 mAb 376.96 scFv; SEQ ID NO:1”, for which, in assay [2], the “NK cell IFNγ production against DU145” value is reported as “enhanced” and the “NK cell degranulation (CD107a) against DU145” value is given as “enhanced”. Also, the “NK cell activation against A549” value in the assay on A549 lung cancer cells is “significantly and robustly improved NK cell activation”.
